For one series, the target named is CRALBP (Homo sapiens, UniProt P12271). In words: analysis of retinoids bound to CRALBP isolated from the reaction mixture. The format is binding.
A further series concerns retinol dehydrogenases. Description: direct assay of retinol dehydrogenases present in the RPE. It is filed as biochemical. The note with it: direct assays.
For series [1], the system named is retinyl acetate hydrolase. Description: direct assay of retinyl acetate hydrolase present in the RPE. The format is biochemical. The settings on record: direct assays.
Another series concerns the target T1, CYP26A1 (Homo sapiens, UniProt O43174).
T1 construct: expressed in transfected cells; host or cells: HEK-293
T1 sequence (O43174 1-497): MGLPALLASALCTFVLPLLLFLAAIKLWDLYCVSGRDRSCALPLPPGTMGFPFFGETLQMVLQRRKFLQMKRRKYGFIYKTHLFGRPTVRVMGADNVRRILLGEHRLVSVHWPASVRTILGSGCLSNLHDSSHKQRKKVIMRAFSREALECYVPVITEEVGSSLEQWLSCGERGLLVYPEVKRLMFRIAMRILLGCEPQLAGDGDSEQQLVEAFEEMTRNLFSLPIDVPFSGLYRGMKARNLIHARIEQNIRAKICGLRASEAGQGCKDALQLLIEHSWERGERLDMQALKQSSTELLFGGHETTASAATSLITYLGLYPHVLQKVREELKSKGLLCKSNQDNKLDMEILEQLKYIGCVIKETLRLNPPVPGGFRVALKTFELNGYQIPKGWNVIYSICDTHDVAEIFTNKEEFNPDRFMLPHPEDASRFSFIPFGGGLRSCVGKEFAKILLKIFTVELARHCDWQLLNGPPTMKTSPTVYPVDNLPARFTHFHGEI
In words: oxidation in HEK-293 cells transfected with CYP26A1 cDNA. The format is in vitro ADME. From the text:
(§1) Next, the RA oxidation pathway was investigated. […] In addition to secretion, Ret-NH2 might be degraded first by deamination to all-trans-retinol/retinal, which was seen to increase in Ret-NH2 treated cells. […] These observations explain the long-lasting effect of RetNH2, as the amide is stored and hydrolyzed back to the free amine.

Series [2] is described as follows: HPLC and mass spectrometry analysis of liver samples of treated mice. The format is in vivo, mouse.
Source text: as §1

Series [3] deals with visual function (a-wave and b-wave). Description: single flash ERG responses of treated mice. It is filed as in vivo, mouse. How it is done:
A. Chromatographic separation of nonpolar retinoids from WT mouse eyes. Mice were gavaged with all-trans-Ret-NH2 24 hours prior to bleaching for 20 min at 150 cd·m^−2 W in the Ganzfeld chamber. Regeneration of 11-cis-retinal was allowed for 24 hours in the dark, and retinoids were extracted from the eye and separated by normal phase HPLC as described in Materials and Methods. The peaks were identified based on elution time and absorption spectra correspond to the following retinoids: 1, all-trans-retinyl esters; 2,2′, syn- and anti-11-cis-retinal oximes; 3, syn-all-trans-retinal oxime; 4,4′, syn- and anti-9-cis-retinal oximes; 5, all-trans-retinol. B. Changes of 11-cis-retinal oxime levels at increasing doses of all-trans-Ret-NH2 during 5 hours or 24 hours of dark adaptation. Square indicates the level of 11-cis-retinal oximes that was present in mice gavaged with vegetable oil without retinoids just after bleaching, and arrow indicates the increase of visual chromophore during 5 hours of dark adaptation. Triangles correspond to the level of 11-cis-retinal found in the mice gavaged with 50 mg/kg of 13-cis-RA. C and D. Single flash ERG responses of increasing intensity for all-trans-Ret-NH2 treated mice and control mice. Serial responses to increasing flash stimuli were obtained for all-trans-Ret-NH2 treated and control mice for selected intensities (C) and plotted as a function of a-wave and b-wave versus varying light intensities under dark-adapted conditions (D) before bleach and at 5 hours and 24 hours after bleach. The dark-adapted mice were bleached with intense constant illumination (150 cd·m^−2) for 20 min. […] SE bars are shown. […]
The conclusions derived from the analysis of retinoids of Ret-NH2-treated mice were supported by ERG analysis of visual functions. […] Next, the impact of all-trans-Ret-NH2 administration on the visual physiology of wild-type mice was evaluated in vivo with ERGs. […]

Another series has as its target T2, RXR (Mus musculus, UniProt P28700).
T2 construct: The RXR-A ORF was then subcloned into pcDNA3.1 Directional TOPO vector; expressed in transfected cells; host or cells: HEK-293, transient transfection with pcDNA3.1 Directional TOPO
T2 sequence (P28700 1-467): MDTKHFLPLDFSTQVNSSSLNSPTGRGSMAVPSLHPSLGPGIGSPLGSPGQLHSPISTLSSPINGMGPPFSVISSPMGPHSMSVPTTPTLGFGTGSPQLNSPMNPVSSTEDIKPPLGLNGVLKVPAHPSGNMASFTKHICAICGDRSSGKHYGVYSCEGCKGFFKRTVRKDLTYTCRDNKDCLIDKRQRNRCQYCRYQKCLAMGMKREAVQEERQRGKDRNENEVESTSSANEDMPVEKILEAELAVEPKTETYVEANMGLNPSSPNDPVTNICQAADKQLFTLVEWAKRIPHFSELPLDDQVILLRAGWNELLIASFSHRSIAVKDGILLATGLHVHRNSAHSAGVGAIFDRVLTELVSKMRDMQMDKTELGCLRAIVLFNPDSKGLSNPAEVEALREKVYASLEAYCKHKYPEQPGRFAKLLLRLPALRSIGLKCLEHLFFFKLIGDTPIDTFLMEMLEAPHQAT
In words: HEK-293 cells with DR1-lacZ reporter and mouse RXRA, β-galactosidase activity. It is filed as cell-based. The note with it: 48 hours treatment, micromolar concentrations.

Entries after “also recorded” stand apart in the source; their conditions may differ.

Chain of CRALBP (P12271 whole entry, species assumed): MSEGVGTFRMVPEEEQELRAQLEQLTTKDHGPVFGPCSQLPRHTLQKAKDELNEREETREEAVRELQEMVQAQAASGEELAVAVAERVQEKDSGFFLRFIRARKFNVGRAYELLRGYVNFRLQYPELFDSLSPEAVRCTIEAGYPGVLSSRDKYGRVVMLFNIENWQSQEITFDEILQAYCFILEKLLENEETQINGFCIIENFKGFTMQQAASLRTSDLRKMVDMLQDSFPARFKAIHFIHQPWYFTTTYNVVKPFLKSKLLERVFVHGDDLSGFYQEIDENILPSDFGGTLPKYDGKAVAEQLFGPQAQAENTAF

Consider `CC1=C(/C=C/C(C)=C/C=C/C(C)=C/CN)C(C)(C)CCC1` [Ret-NH2, Retinylamine], for which the “binding to CRALBP” value on CRALBP is given as “does not bind”. The “inhibition of retinol dehydrogenases” value in the series with retinol dehydrogenases was “did not inhibited”. For the same compound, the “inhibition of retinyl acetate hydrolase” value in series [1] is recorded as “did not inhibited”. The “oxidation by CYP26A1” value on CYP26A1 is given as “no evidence of the presence of hydroxy- or oxo-Ret-NH2”. In series [2], the “metabolite found in liver” value is given as “amidated to N-retinylpalmitamide”.
Turning to `CC1=C(/C=C/C(C)=C/C=C/C(C)=C/CN)C(C)(C)CCC1` [all-trans-Ret-NH2, all-trans-retinylamine], in series [3] (50 mg/kg single dose, 20 min bleach, 5 and 24 hours after, P<0.0001 vs control), the “dark-adapted ERG a- and b-wave responses after bleach” value is on record as “significantly attenuated”. Moreover, the “light-adapted (photopic) ERG responses, cone function” value in series [3] (50 mg/kg single dose, before and 5 and 24 hours after bleach, p>0.1 vs control) is “attenuated weakly; also recorded: not affected by all-trans-Ret-NH2 to the same extent as rod function”. In series [3] (24 hours after 50 mg/kg gavage), the “dark-adapted ERG before bleach” value is “normal waveforms and responses”. Besides, at RXR, the “activation of transcription through RXR (DR1 elements)” value is reported as “does not activate protein transcription”.

The values above are taken from patent publication US20080275134A1, “Methods for Treatment of Retinal Degenerative Disease” (University of Washington, priority 2005, published 2008).
